Data as given in patent publication US20250223301A1, “KINASE INHIBITORS, PREPARATION METHODS AND USES THEREOF” (InventisBio Co., Ltd., priority 2022, published 2025).
Like-named read-outs stand apart in the source and are kept apart here.

Key:
[1] = Human microsomal clearance assay; format: in vitro ADME; settings: pH 7.4; for CLint scaled at 1 μM: human, liver microsomes; for half-life at 1 μM: human liver microsomes 0.5 mg/mL, 1 uM compound
Procedure: This study aimed to assess the metabolic stability of a compound in human liver microsomes using a microsomal clearance assay.
A mixture containing 100 mM potassium phosphate, pH 7.4, 0.5 mg/mL liver microsomes, 2 mM NADPH, and 1 μM compound were prepared and added to 96-well plate. The plates were then incubated at 37 ? for different time points (0, 5, 15, 30, 45 minutes) and the reaction was stopped with acetonitrile solution containing an internal standard. The samples were then analyzed by LC/MS/MS to determine how much of the compound remained at each time point. The elimination rate constant and half-life were calculated from the data, and the in vitro intrinsic clearance (CLint) was determined as follows: […]

PBMC = assay: Human PBMC IL-2 assay; format: cell-based; settings: anti-CD3/CD28 stimulation overnight, IL-2 level
Procedure, shortened: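 Healthy-donor frozen PBMC were thawed, rested 4 h at 37 °C and plated at ~200,000 cells/well. Cells were preincubated 60 min at 37 °C with compound solution (10 uM to 0.6 nM, 8 points, 4-fold, as added), then stimulated overnight with anti-CD3/CD28. Supernatant IL-2 was quantified by immunoassay kit and plotted against log compound concentration.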

Jurkat cells = assay: Jurkat IL-2 assay; format: cell-based; settings: Homo sapiens, anti-CD3/CD28 stimulation overnight, IL-2 level
Procedure, shortened: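 Cells in RPMI-1640 with 10% FBS received compound solution (5 uM to 2.3 nM, 8 points, 3-fold dilution) for 60 minutes at 37° C. They were then stimulated overnight at 37° C. with anti-CD3/CD28 antibody. IL-2 in the supernatant was quantified by immunoassay kit and plotted against log compound concentration.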

[2] = tested on: whole blood from male C57BL6 mice; assay: Mouse whole blood IFN-gamma assay; format: cell-based; settings: anti-mouse CD3/CD28 0.6 ug/mL, 20 hours
Procedure: The whole blood from male C57BL6 mice (6-8 weeks old, Beijing Vital River Laboratory Animal Technology Co., Ltd.) was collected, pooled and dispensed at 200 uL per well in a 96-well plate. The blood was treated with compounds for one hour at 37° C. in a humidified 5% CO2 incubator. The blood was then stimulated with anti-mouse CD3 and anti-mouse CD28 antibody (BioLegend Cat #100340, #102116) at a final concentration of 0.6 ug/mL for 20 hours at 37° C. in a humidified 5% CO2 incubator. The blood was spun down, IFN-gamma in the supernatants was measured using ELISA kit (Excellbio Cat #EM002-96, #EM007-96) according the manufacture's instruction.

DGKz = DGKz (Homo sapiens (Human), UniProt Q13574); assay: DGK ADP-Glo kinase assay (DGKz); format: biochemical; settings: 5 nM DGKz, 15 uM ATP
DGKz, sequence (Q13574 whole entry): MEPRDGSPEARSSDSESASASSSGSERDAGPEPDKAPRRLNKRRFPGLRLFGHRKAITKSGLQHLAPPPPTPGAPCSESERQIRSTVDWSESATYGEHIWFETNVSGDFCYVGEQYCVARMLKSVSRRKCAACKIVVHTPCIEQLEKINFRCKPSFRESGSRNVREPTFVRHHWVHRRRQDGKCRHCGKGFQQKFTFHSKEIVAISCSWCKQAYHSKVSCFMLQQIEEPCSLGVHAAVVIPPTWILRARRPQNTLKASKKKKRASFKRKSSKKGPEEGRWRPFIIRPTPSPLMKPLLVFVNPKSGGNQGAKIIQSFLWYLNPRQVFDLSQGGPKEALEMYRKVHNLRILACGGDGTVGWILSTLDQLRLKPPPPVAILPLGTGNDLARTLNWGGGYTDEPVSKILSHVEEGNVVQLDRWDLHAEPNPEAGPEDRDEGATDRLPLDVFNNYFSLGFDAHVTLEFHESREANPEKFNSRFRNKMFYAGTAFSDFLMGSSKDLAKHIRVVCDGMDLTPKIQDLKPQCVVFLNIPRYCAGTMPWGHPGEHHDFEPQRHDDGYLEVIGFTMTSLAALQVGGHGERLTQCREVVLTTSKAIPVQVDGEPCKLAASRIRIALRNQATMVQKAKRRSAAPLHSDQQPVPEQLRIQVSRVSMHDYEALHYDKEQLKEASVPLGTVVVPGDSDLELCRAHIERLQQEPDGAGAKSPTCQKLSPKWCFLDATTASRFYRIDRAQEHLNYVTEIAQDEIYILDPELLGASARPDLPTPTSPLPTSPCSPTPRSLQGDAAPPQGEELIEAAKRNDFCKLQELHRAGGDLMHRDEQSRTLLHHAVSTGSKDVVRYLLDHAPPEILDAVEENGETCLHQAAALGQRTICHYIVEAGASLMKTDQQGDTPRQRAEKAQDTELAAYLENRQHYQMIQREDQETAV
Procedure: Luminescence was recorded using an Tecan SPARK microplate reader.

DGKa [3] = target: T1, DGKa (Homo sapiens (Human), UniProt P23743); assay: biochemical;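 note: biochemical DGK kinase assay, ADP-Glo luminescence from ADP made by phosphorylating 1,2-dioleoyl-sn-glycerol, 20 min compound preincubation then 40 min reaction at 25 °C, 1% DMSO control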
T1 sequence (P23743 whole entry): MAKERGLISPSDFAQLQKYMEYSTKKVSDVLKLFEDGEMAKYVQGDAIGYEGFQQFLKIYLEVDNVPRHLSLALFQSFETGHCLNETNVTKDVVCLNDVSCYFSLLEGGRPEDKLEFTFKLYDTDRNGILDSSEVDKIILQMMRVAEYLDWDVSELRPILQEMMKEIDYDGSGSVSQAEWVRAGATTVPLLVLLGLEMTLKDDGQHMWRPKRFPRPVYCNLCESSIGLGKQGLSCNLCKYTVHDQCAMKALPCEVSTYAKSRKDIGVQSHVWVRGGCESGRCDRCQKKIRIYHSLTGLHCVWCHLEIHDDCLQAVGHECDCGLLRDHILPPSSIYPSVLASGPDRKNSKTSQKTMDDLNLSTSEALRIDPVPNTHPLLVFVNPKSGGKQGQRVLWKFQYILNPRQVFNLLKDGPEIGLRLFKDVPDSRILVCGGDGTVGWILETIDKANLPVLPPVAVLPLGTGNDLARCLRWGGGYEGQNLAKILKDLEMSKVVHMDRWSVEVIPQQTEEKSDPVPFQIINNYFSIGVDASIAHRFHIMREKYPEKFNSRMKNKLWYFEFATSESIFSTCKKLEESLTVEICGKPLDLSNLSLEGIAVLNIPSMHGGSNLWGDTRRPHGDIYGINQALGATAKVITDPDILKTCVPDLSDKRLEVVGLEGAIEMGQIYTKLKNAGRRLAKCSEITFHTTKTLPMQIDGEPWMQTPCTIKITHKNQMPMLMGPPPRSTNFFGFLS
Procedure: (§1) The DGKa and DGKz kinase assays were performed using Promega ADP-Glo kit (Promega, Cat #V9102). One microliter test compound was added to a 384-well plate. Reactions were performed in a 5 uL volume by adding 2 uL mixture of DGK enzyme and ATP in assay buffer (50 mM MOPS pH 7.5, 100 mM NaCl, 10 mM MgCl2, 1 mM CaCl2, 0.0025% BSA, and 1 mM DTT). […] The enzyme solution was incubated with test compound at 25 ? for 20 min. […] The reaction was initiated by the addition of 2 uL of substrate solution (7 uM 1.2-dioleoyl-sn-glycerol, 5 mM octyl-b-D-glucopyranoside) in the 5 uL assay volume. The resulting mixture was incubated at 25° C. for 40 minutes. Next, 5 uL of ADP-Glo-reagent was added to the plate and incubated for 40 minutes. Then 10 uL of kinase detection reagent was added and incubated for 30 minutes. Luminescence was recorded using an Tecan SPARK microplate reader. 1% DMSO vehicle was used as control and no enzyme well was used as blank well.

[4] = tested on: MC-38 murine colon adenocarcinoma cells; assay: In vivo efficacy in MC38 syngeneic mouse tumor model; settings: MC38, C57BL/6 mice; compound 67 0.6 mg/kg PO QD in combination with anti-PD-1 2 mg/kg i.p. twice per week
Procedure: Murine colon adenocarcinoma cells MC-38 were obtained from American Type Culture Collection (ATCC) and cultured in RPMI 1640 media containing 10% fetal bovine serum (FBS) at 37° C. in a humidified 5% CO2 incubator. Female C57BL/6 mice (20 2 g, 6-8 weeks old) were purchased from SPF Biotechnology Co., Ltd. (Beijing, China). MC-38 cells were collected from flask and suspended in PBS. Suspension of 1×10^6 cells in 0.1 mL culture media without FBS was injected subcutaneously into animal armpits. Once the tumor reached 100-150 mm^3, the mice were randomized into different groups and treatment was initiated. Mice were treated orally once per day (PO, QD) with compound 67 (0.6 mg/kg) or vehicle control. Anti-PD-1 antibody (BioXcell, Cat #BE0273) was diluted with PBS for dosing at 2 mg/kg and was administrated via intraperitoneal injection, twice per week. Tumor volume and body weight of mice were recorded twice per week.
All animals were housed in a room maintained at 23±3° C., 65%-75% humidity, with a controlled 12 h light-dark cycle for 5-7 days before experiments. Water and commercial laboratory complete food for mice were provided in the cage.
Tumor volume was calculated by measuring two perpendicular diameters using the following formula: (L×W^2)/2, in which L and W refer to the length and width tumor diameter, respectively.

DGKa [5] = target: T1, DGKa
Procedure: as §1

[6] = tested on: CT26 murine colorectal adenocarcinoma cells; assay: In vivo efficacy in CT26 syngeneic mouse tumor model; settings: CT26, BALB/c mice; 3 mg/kg PO QD
Procedure: Murine colorectal adenocarcinoma cells CT26 (purchased from ATCC) were cultured in RPMI 1640 medium with 10% FBS. For tumor implantation, 6-8 weeks old BALB/c female mice (Beijing Vital River Laboratory Animal Technology Co., Ltd.) were given a subcutaneous injection of CT26 cell (1×10^7 cells/mL) in 0.1 mL suspension into the right flank. Once tumors grew to a volume of 50-100 mm3, mice were randomized into different groups and treatment was initiated. Mice were treated orally once per day (PO, QD) with DGK inhibitors (3 mg/kg) or vehicle control. Anti-PD-1 antibody (BioXcell, Cat #BE0273), anti-CTLA4 antibody (BioXcell, Cat #BE0164) were diluted with PBS for dosing at 10 mg/kg or 5 mg/kg, respectively. Antibody was administrated via intraperitoneal injection, twice per week. Tumor volume and body weight of mice were recorded twice per week.
All animals were housed in a room maintained at 23:3° C., 65%-75% humidity, with a controlled 12 h light-dark cycle for 5-7 days before experiments. Water and commercial laboratory complete food for mice were provided in the cage.

Row | Compound | CLint scaled at 1 μM [1] | half-life at 1 μM [1] | EC50 (PBMC) | EC50 (Jurkat cells) | EC50 [2] | IC50 (DGKz) | IC50 (DGKa [3]) | Tumor inhibition activity [4] | IC50 (DGKa [5]) | Tumor growth [6]
1 | CC[C@@H](c1ccc(Cl)c(Cl)c1)N1C[C@H]2COc3c(c4nc(C#N)ccc4n(C)c3=O)N2C[C@H]1C (stereo in doubt) [Compound 322] | 12.4 mL/min/kg | 2.35 h | 25 nM | 12 nM | 281 nM | – | – | – | – | –
2 | CC[C@@H]1CN2c3c(c(=O)n(C)c4ccc(C#N)nc34)OC[C@@H]2CN1[C@@H](CC)c1ccc(C(F)(F)F)cc1 [Compound 67] | 7.5 mL/min/kg | 3.88 h | 40 nM | 49 nM | 102 nM | 16 nM | 4 nM | significantly better tumor inhibition activity than either of the single agents | – | –
3 | C[C@@H]1CN2c3c(c(=O)n(C)c4ccc(C#N)nc34)OC[C@@H]2CN1[C@@H](C)c1ccc(C(F)(F)F)cc1 (stereo in doubt) [Compound 223] | 18.3 mL/min/kg | 1.58 h | 47 nM | 70 nM | 679 nM | – | – | – | – | –
4 | CC[C@H]1CN([C@@H](CC)c2ccc(C(F)(F)F)cc2)[C@H](CC)CN1c1nc2nncn2c2ccc(C#N)nc12 [Compound 34] | – | – | 44 nM | 67 nM | 335 nM | 42 nM | – | – | 16 nM | –
5 | CC[C@@H]1CN2c3c(c(=O)n(C)c4ccc(C#N)nc34)OC[C@@H]2CN1[C@@H](CC)c1ccc(Cl)c(Cl)c1 (stereo in doubt) [Compound 250] | 12.3 mL/min/kg | 2.37 h | 16 nM | 32 nM | 144 nM | – | – | – | – | inhibit tumor growth
6 | Cn1c(=O)nc(N2CCC3(CC2)CC(c2ccc(OC(F)(F)F)cc2)=NO3)c2nc(C#N)ccc21 [Compound 31] | 5.1 mL/min/kg | 5.7 h | – | – | – | 24 nM | – | – | 20 nM | –
7 | CC[C@@H]1CN2c3c(c(=O)n(C)c4ccc(C#N)nc34)OC[C@@H]2CN1[C@@H](CC)c1ccc(F)c(Cl)c1 (stereo in doubt) [Compound 197] | – | – | 78 nM | 39 nM | 312 nM | – | – | – | – | –
8 | CC[C@@H]1CN2c3c(c4nncn4c4ccc(C#N)nc34)OC[C@@H]2CN1[C@@H](CC)c1ccc(C(F)(F)F)cc1 [Compound 334] | – | – | 31 nM | 26 nM | 241 nM | – | – | – | – | –
9 | CC[C@H]1CN([C@@H](CC)c2ccc(S(F)(F)(F)(F)F)cc2)[C@H](CC)CN1c1nc(=O)n(C)c2ccc(C#N)nc12 [Compound 28] | 7.7 mL/min/kg | 3.75 h | – | – | – | 50 nM | 12 nM | – | – | –
10 | CC[C@@H]1CN2c3c(c(=O)n(C)c4ccc(C#N)nc34)OC[C@@H]2CN1[C@@H](CC)c1ccc(C(F)(F)F)c(Cl)c1 (stereo in doubt) [Compound 246] | 1.1 mL/min/kg | 25.7 h | 23 nM | 30 nM | 265 nM | – | – | – | – | –
